Reference: the supplement of paper PMC11208160

Experiment: recombinant barcode read abundance after kanamycin selection (control-corrected) (log10(CPM+1)); higher = more efficient recombination; sequences stand for … in AGTGCAGAGAAAATCGGCCAGTTTTCTCTGCCTGCAGTCCGCATGCCGT…AGATTTATGCAGCGGACTGCCTTTCTCCCAAAGTGATAAACCGGACAGTATCATGGACCGGTTTTCCCGGTAATCCGTATTTGCAAGGTTGGTTTCACT; site = the 11-nt target
Method in brief: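 Duplicate cultures were plated either on chloramphenicol/ampicillin LB agar, serving as control, or on chloramphenicol/ampicillin/kanamycin with 0.1 mM IPTG. These came from a pooled E. coli library co-electroporated with a donor plasmid, each member pairing a target with an IS621 bridge RNA target-binding loop. Recombination efficiency equals averaged, control-corrected counts per million of recombinant-junction barcodes. It is listed as log10(CPM+1).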
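Further: IS621 recombinase and bridge RNA in Escherichia coli cells.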

CGTGAGACTTGGGTTCTAACCTGTTGCCT (site CGTGAGACTAG)
recombinant barcode read abundance (log10): 1.48

CGTGAGACTTGGGTTCTAACCTGTTGCCT (site CGTTAGACTAG)
recombinant barcode read abundance (log10): 0.0487

CGTGGAGCTTGGGTTCTAACCTGTTGCCA (site CGTCTAGCTTG)
recombinant barcode read abundance (log10): 0.136

CGTGGAGCTTGGGTTCTAACCTGTTGCCA (site CGTGGAGCTTG)
recombinant barcode read abundance (log10): 0.836

CGTGGTCCTTGGGTTCTAACCTGTTGCAT (site CGTGGTCCTAA)
recombinant barcode read abundance (log10): 0.414

CGTGGTCCTTGGGTTCTAACCTGTTGCAT (site CGTGGTCCTAC)
recombinant barcode read abundance (log10): 0.809

CGTGGTCCTTGGGTTCTAACCTGTTGCAT (site CGTGGTCCTAG)
recombinant barcode read abundance (log10): 0.398

CGTGGTCCTTGGGTTCTAACCTGTTGCAT (site CGTGGTCCTAT)
recombinant barcode read abundance (log10): 1.25

CGTGTAACTTGGGTTCTAACCTGTTGCTT (site CGAGCAACTAA)
recombinant barcode read abundance (log10): 0.0308

CGTGTAACTTGGGTTCTAACCTGTTGCTT (site CGTGTAACTAA)
recombinant barcode read abundance (log10): 0.212

CGTTATTCTTGGGTTCTAACCTGTTGCCT (site CGGAATTCTAG)
recombinant barcode read abundance (log10): 0.115

CGTTATTCTTGGGTTCTAACCTGTTGCCT (site CGTTATTCTAG)
recombinant barcode read abundance (log10): 0.0118

CGTTCACCTTGGGTTCTAACCTGTTGCAT (site ACAAATACTCC)
recombinant barcode read abundance (log10): 0.0056

CGTTCACCTTGGGTTCTAACCTGTTGCAT (site CGTTCACCTAT)
recombinant barcode read abundance (log10): 0.499

CGTTCCTCTTGGGTTCTAACCTGTTGCCT (site CATTCCTCTAG)
recombinant barcode read abundance (log10): 0.0798

CGTTCCTCTTGGGTTCTAACCTGTTGCCT (site CCTTCCTCTAG)
recombinant barcode read abundance (log10): 0.016

CGTTCCTCTTGGGTTCTAACCTGTTGCCT (site CGTTCCTCTAG)
recombinant barcode read abundance (log10): 0.519

CGTTCCTCTTGGGTTCTAACCTGTTGCCT (site CTTTCCTCTAG)
recombinant barcode read abundance (log10): 0.0942

CTAAAAGCTTGGGTTCTAACCTGTTGCAA (site CTAAAAGCTTT)
recombinant barcode read abundance (log10): 0.501

CTAAAAGCTTGGGTTCTAACCTGTTGCAA (site GGCTGTCCTAC)
recombinant barcode read abundance (log10): 0.628

CTAAAGACTTGGGTTCTAACCTGTTGCAC (site CCAAAGACTAT)
recombinant barcode read abundance (log10): 0.0891

CTAAAGACTTGGGTTCTAACCTGTTGCAC (site CTAAAGACTGT)
recombinant barcode read abundance (log10): 1.42

CTAAATACTTGGGTTCTAACCTGTTGCCT (site CTAAATACTAG)
recombinant barcode read abundance (log10): 0.17

CTAAATACTTGGGTTCTAACCTGTTGCCT (site CTAAATACTTA)
recombinant barcode read abundance (log10): 0.0116

CTAAATACTTGGGTTCTAACCTGTTGCGT (site CTAAATACTAC)
recombinant barcode read abundance (log10): 1.54

CTAAATACTTGGGTTCTAACCTGTTGCGT (site CTACATTCTAC)
recombinant barcode read abundance (log10): 0.00955

CTAAGAACTTGGGTTCTAACCTGTTGCGT (site CTAAGAACTAA)
recombinant barcode read abundance (log10): 0.0418

CTAAGAACTTGGGTTCTAACCTGTTGCGT (site CTAAGAACTAC)
recombinant barcode read abundance (log10): 2.1

CTAAGAACTTGGGTTCTAACCTGTTGCGT (site CTAAGAACTAG)
recombinant barcode read abundance (log10): 0.264

CTAAGAACTTGGGTTCTAACCTGTTGCGT (site CTAAGAACTAT)
recombinant barcode read abundance (log10): 0.615

CTAAGCGCTTGGGTTCTAACCTGTTGCCA (site CTAAGAGCTTG)
recombinant barcode read abundance (log10): 0.145

CTAAGCGCTTGGGTTCTAACCTGTTGCCA (site CTAAGCGCTTG)
recombinant barcode read abundance (log10): 0.647

CTAAGCGCTTGGGTTCTAACCTGTTGCCA (site CTAAGGGCTTG)
recombinant barcode read abundance (log10): 0.205

CTAAGCGCTTGGGTTCTAACCTGTTGCCA (site CTAAGTGCTTG)
recombinant barcode read abundance (log10): 0.0786

CTAAGCTCTTGGGTTCTAACCTGTTGCTT (site CTAAGCTCTAA)
recombinant barcode read abundance (log10): 0.0662

CTAAGCTCTTGGGTTCTAACCTGTTGCTT (site CTAAGCTCTCA)
recombinant barcode read abundance (log10): 0.133

CTAAGCTCTTGGGTTCTAACCTGTTGCTT (site CTAAGCTCTGA)
recombinant barcode read abundance (log10): 0.0802

CTAAGCTCTTGGGTTCTAACCTGTTGCTT (site CTAAGCTCTTA)
recombinant barcode read abundance (log10): 0.107

CTAAGGCCTTGGGTTCTAACCTGTTGCCT (site CTAAAGCCTAG)
recombinant barcode read abundance (log10): 0.377

CTAAGGCCTTGGGTTCTAACCTGTTGCCT (site CTAAGGCCTAG)
recombinant barcode read abundance (log10): 0.162

CTAAGGTCTTGGGTTCTAACCTGTTGCTA (site CTAAGGTCTTA)
recombinant barcode read abundance (log10): 1.64

CTAAGGTCTTGGGTTCTAACCTGTTGCTA (site TCTTTAGCTCT)
recombinant barcode read abundance (log10): 0.123

CTAAGTGCTTGGGTTCTAACCTGTTGCCA (site CTAAGAGCTTG)
recombinant barcode read abundance (log10): 0.0354

CTAAGTGCTTGGGTTCTAACCTGTTGCCA (site CTAAGCGCTTG)
recombinant barcode read abundance (log10): 0.0378

CTAAGTGCTTGGGTTCTAACCTGTTGCCA (site CTAAGGGCTTG)
recombinant barcode read abundance (log10): 0.0841

CTAAGTGCTTGGGTTCTAACCTGTTGCCA (site CTAAGTGCTTG)
recombinant barcode read abundance (log10): 0.35

CTAATATCTTGGGTTCTAACCTGTTGCCA (site CTAATATCTTG)
recombinant barcode read abundance (log10): 0.0293

CTAATATCTTGGGTTCTAACCTGTTGCCA (site CTCATATCTTG)
recombinant barcode read abundance (log10): 0.128

CTAATGTCTTGGGTTCTAACCTGTTGCCA (site CTAATGTCTAG)
recombinant barcode read abundance (log10): 0.622

CTAATGTCTTGGGTTCTAACCTGTTGCCA (site CTAATGTCTTG)
recombinant barcode read abundance (log10): 0.26

CTAATTACTTGGGTTCTAACCTGTTGCAA (site CTAAGTACTCT)
recombinant barcode read abundance (log10): 0.0716

CTAATTACTTGGGTTCTAACCTGTTGCAA (site CTAATTACTTT)
recombinant barcode read abundance (log10): 0.094

CTACAAGCTTGGGTTCTAACCTGTTGCCT (site CTACAAGCTAG)
recombinant barcode read abundance (log10): 1.34

CTACAAGCTTGGGTTCTAACCTGTTGCCT (site CTCCAAGCTAG)
recombinant barcode read abundance (log10): 0.279

CTACAAGCTTGGGTTCTAACCTGTTGCCT (site CTGCAAGCTAG)
recombinant barcode read abundance (log10): 0.155

CTACAAGCTTGGGTTCTAACCTGTTGCCT (site CTTCAAGCTAG)
recombinant barcode read abundance (log10): 0.177

CTACAATCTTGGGTTCTAACCTGTTGCCT (site ATACAATCTAG)
recombinant barcode read abundance (log10): 0.0309

CTACAATCTTGGGTTCTAACCTGTTGCCT (site CTACAATCTAG)
recombinant barcode read abundance (log10): 0.979

CTACAATCTTGGGTTCTAACCTGTTGCCT (site GTACAATCTAG)
recombinant barcode read abundance (log10): 0.0211

CTACAATCTTGGGTTCTAACCTGTTGCCT (site TTACAATCTAG)
recombinant barcode read abundance (log10): 0.0283

CTACACACTTGGGTTCTAACCTGTTGCTC (site CTACACACTGA)
recombinant barcode read abundance (log10): 1.64

CTACACACTTGGGTTCTAACCTGTTGCTC (site CTACACACTTA)
recombinant barcode read abundance (log10): 0.0402

CTACAGACTTGGGTTCTAACCTGTTGCGA (site CTACAGACTAC)
recombinant barcode read abundance (log10): 0.0546

CTACAGACTTGGGTTCTAACCTGTTGCGA (site CTACAGACTCC)
recombinant barcode read abundance (log10): 1.04

CTACAGACTTGGGTTCTAACCTGTTGCGA (site CTACAGACTGC)
recombinant barcode read abundance (log10): 0.0716

CTACAGACTTGGGTTCTAACCTGTTGCGA (site CTACAGACTTC)
recombinant barcode read abundance (log10): 2.73

CTACAGACTTGGGTTCTAACCTGTTGCGC (site CTACAGACTAC)
recombinant barcode read abundance (log10): 0.253

CTACAGACTTGGGTTCTAACCTGTTGCGC (site CTACAGACTCC)
recombinant barcode read abundance (log10): 0.221

CTACAGACTTGGGTTCTAACCTGTTGCGC (site CTACAGACTGC)
recombinant barcode read abundance (log10): 1.21

CTACAGACTTGGGTTCTAACCTGTTGCGC (site CTACAGACTTC)
recombinant barcode read abundance (log10): 0.503

CTACAGACTTGGGTTCTAACCTGTTGCGG (site CTACAGACTAC)
recombinant barcode read abundance (log10): 0.088

CTACAGACTTGGGTTCTAACCTGTTGCGG (site CTACAGACTCC)
recombinant barcode read abundance (log10): 2.61

CTACAGACTTGGGTTCTAACCTGTTGCGG (site CTACAGACTGC)
recombinant barcode read abundance (log10): 0.141

CTACAGACTTGGGTTCTAACCTGTTGCGG (site CTACAGACTTC)
recombinant barcode read abundance (log10): 1.31

CTACAGACTTGGGTTCTAACCTGTTGCGT (site CTACAGACTAC)
recombinant barcode read abundance (log10): 1.81

CTACAGACTTGGGTTCTAACCTGTTGCGT (site CTACAGACTCC)
recombinant barcode read abundance (log10): 0.229

CTACAGACTTGGGTTCTAACCTGTTGCGT (site CTACAGACTGC)
recombinant barcode read abundance (log10): 0.155

CTACAGACTTGGGTTCTAACCTGTTGCGT (site CTACAGACTTC)
recombinant barcode read abundance (log10): 0.238

CTACATTCTTGGGTTCTAACCTGTTGCGT (site CTAAATACTAC)
recombinant barcode read abundance (log10): 0.0752

CTACATTCTTGGGTTCTAACCTGTTGCGT (site CTACATTCTAC)
recombinant barcode read abundance (log10): 1.52

CTACGATCTTGGGTTCTAACCTGTTGCAC (site CTACGATCTGT)
recombinant barcode read abundance (log10): 0.737

CTACGATCTTGGGTTCTAACCTGTTGCAC (site CTACGCTCTGT)
recombinant barcode read abundance (log10): 0.162

CTACGATCTTGGGTTCTAACCTGTTGCAC (site CTACGGTCTGT)
recombinant barcode read abundance (log10): 0.375

CTACGATCTTGGGTTCTAACCTGTTGCAC (site CTACGTTCTGT)
recombinant barcode read abundance (log10): 0.365

CTACGCTCTTGGGTTCTAACCTGTTGCGA (site CTACGCTCTTC)
recombinant barcode read abundance (log10): 1.52

CTACGCTCTTGGGTTCTAACCTGTTGCGA (site CTAGGCTCTCC)
recombinant barcode read abundance (log10): 0.452
